Read-outs that look alike come from different tables or passages of the source.
Columns and labels:
Format in all cases: cell-based
[1] = system: HT-1080 human fibrosarcoma cells; experiment: Toxicity to cultured HT-1080 cells, number of viable cells; settings: for IC50: Homo sapiens
Method: Each data point represents an average of two determinations. […] Each data point represents an average of two determinations.
Half shaded symbols represent overlapping data points.
Toxicity of pyrimidine analogues to cultured human cells is determined as follows. Mammalian cells are seeded into culture plate wells, and growth medium is added. The following day, fresh culture medium containing the appropriate pyrimidine analogues is added to the wells, and the plates incubated for a period of time and at a temperature appropriate to the cell line and the experimental requirements. Thereafter, the number of cells in each well is determined. […] Cells that grow in suspension (e.g., HL-60 and L-1210 cells) are transferred to centrifuge tubes, pelleted at low speed, washed, and the viability determined as above.
HT-1080 cells were seeded into 6-well culture plates at a density of 50,000 cells per 9.6 cm^2 well. Each well contained 2.5 ml of growth medium. […] After 1 minute, the detached cells were suspended in 1.0 ml of EMEM and collected by centrifugation at 300×g for 3 minutes. […] The concentrations of viable cells were determined in a hemocytometer.

[2] = system: Plasmodium falciparum, Sierra Leone clone D6; experiment: Inhibition of P. falciparum proliferation, [G-3H]-hypoxanthine incorporation, Sierra Leone clone D6 (chloroquine-sensitive); settings: for IC50: Plasmodium falciparum
Method: 3. Effects of pyrimidine analogues alone or in combination with normal pyrimidine bases or nucleosides or with amino acid derivatives can be tested in malaria parasite-infected erythrocytes. Varying concentrations of pyrimidine analogues in culture medium are added to individual wells of microtitre plates [Desjardins, R. E. et al., Antimicrob. […] Parasitemic erythrocytes in culture medium are added to each well. […] As an alternative to adding a radioactive precursor of nucleic acid biosynthesis, the end point for determining the effects of added drugs can be the incorporation of a radioactive amino acid, e.g., [U-^14 C]-isoleucine, into parasite protein.
Fluoropyrimidines, dispersed in 25 μl of culture medium, were added to individual wells of a 96-well microtitre plate. […] Finally, the incorporation of 0.5 μCi of [G-^3 H]hypoxanthine (1 Ci/mmol) into nucleic acids in each well was determined; this served as a measure of parasite proliferation. […] In a second method, the increase in parasitemia was determined directly by smearing infected erythrocytes on microscope slides, staining with Giemsa stain, and determining the ratio of infected to non-infected erythrocytes. In a third method, parasite-infected erythrocytes were incubated with [U-^14 C]-isoleucine (0.5 μCi; 0.33 Ci/mmol), and the amount of radioactivity incorporated into precipitable proteins determined.

[3] = system: HL-60 human promyelocytic leukemia cells; experiment: Toxicity to cultured HL-60 cells, number of viable cells
Text: 2. Effects of orotate analogues on cell viability and the ability to synthesize nucleic acids from radioactive precursors, and the rescuing effects of normal pyrimidine bases or nucleosides or amino acid derivatives such as histidinol, can be tested in human-derived tissue culture cell lines. Human HT-1080 human sarcoma cells [Rusheed, S., et al., Cancer, 33:1027-30 (1974)], human diploid IMR-90 cells [Nichols, W. W., et al., Science, 196:60-3 (1977)], human cervical […] HeLa S3 cells [Puck, T. T., et al., J. Exp. Med., 103:273-84 (1956)], HL-60 human myeloid leukemia cells [Collins, S. J., et al., Nature, 270:347-9 (1977)], and mouse leukemia L-1210 cells [Moore, G. E., J. Nat. […] The growth medium most suitable for each cell line can be determined by reference to the publications cited above: briefly, HT-1080 cells are maintained in Eagle's Minimal Essential Medium (EMEM) supplemented with 5% fetal bovine serum (FBS) and 2 mM L-glutamine; IMR-90 cells are grown in EMEM supplemented with 10% FBS, 10 mM Hepes buffer, 0.21% NaHCO3, and 2 mM L-glutamine. […]
Toxicity of pyrimidine analogues to cultured human cells is determined as follows. […] Thereafter, the number of cells in each well is determined. […] Cells that grow in suspension (e.g., HL-60 and L-1210 cells) are transferred to centrifuge tubes, pelleted at low speed, washed, and the viability determined as above. […]

What does the source list for `O=C(O)c1[nH]c(=O)[nH]c(=O)c1F` [5-fluoro-orotate]?
decrease of cytotoxicity by 1 mM uridine ([1]; HT-1080, 48 h, simultaneous 1 mM uridine (FIG. 2)): 5 -fold; IC50 ([1]; HT-1080, 48 h, read-out: IC50 (50% inhibition)): ~10 µM; IC50 ([1]; HT-1080, read-out: IC50 With 1 mM Uridine): 50 µM; IC50 ([1]; HT-1080, read-out: IC50 Without Uridine): 10 µM; IC50 ([2]; D6, Example 3, Table 2, hypoxanthine uptake): 2.2 nM; IC50 ([2]; D6, Sierra Leone clone, Table 1, mean ± S.D. of five independent drug response curves): 5.8 ± 3.1 nM; times more active than chloroquine ([2]; chloroquine-sensitive Sierra Leone clone): 1.6 times; IC50 ([3]; HL-60, with 1 mM uridine, read-out: IC50 With 1 mM Uridine): 4500 nM; IC50 ([3]; HL-60, without uridine, read-out: IC50 Without Uridine): 900 nM

— US6159953A, “Anti-malarial composition and method of use” (Catholic University of America, priority 1992, dated 2000)
